# Measured values taken from patent US20240228558A9, “PEPTIDES AND METHODS FOR THE TREATMENT OF NEUROMYELITIS OPTICA” (IMCYSE SA, priority 2021, published 2024).
# What was measured:
# [1] = test system: peptide-specific CD4+ T cell lines of NMO patients; assay: Lytic marker Granzyme B in supernatant of overnight co-culture with autologous LCL; format: cell-based, human
# Excerpt: (§1) PBMCs are isolated from blood samples of patients with NMO on Lymphoprep density gradients. CD14+ monocytes are isolated from these PBMCs by performing positive immunomagnetic separation with CD14 microbeads (Miltenyi Biotec, 130-050-201) according to the supplier recommendations. CD14+ monocytes are differentiated for six days and maturated to generate autologous dendritic cells (mDC). CD19+ B cells are isolated from the CD14− PBMCs fraction by performing positive immunomagnetic separation with CD19 microbeads (Miltenyi Biotec, 130-050-301) according to the supplier recommendations. CD19+B cells are cultured and immortalized with EBV to generate autologous lymphoblastoid cell lines (LCL). Naïve CD4+ T cells are also purified from the CD14− PBMCs fraction by performing negative immunomagnetic separation with naïve CD4+ T cell isolation kit (Miltenyi Biotec, 130-094-131) according to the supplier recommendations. Naïve CD4+ T cells are co-cultured with autologous mDC or LCL in the presence of the peptides of table 1. The CD4+ T cells are re-stimulated periodically, about every 10-12 days, to generate peptide-specific cell lines.
# (§2) LCL without (no peptide) or with the peptides of table 1. The expression of the lytic marker Granzyme B is also evaluated by flow cytometry analysis in the supernatant of overnight co-culture with autologous LCL without (no peptide) or with the peptides of table 1. Supernatants are analyzed with a BioLegend kit according to the supplier recommendations.
# [2] = test system: autologous LCL (lymphoblastoid cell lines) used as antigen presenting cells; assay: Cytolytic activity: apoptosis of peptide-loaded autologous LCL co-cultured with peptide specific CD4+ T cells (Annexin V); format: cell-based, human
# Excerpt: as §1
# The cytolytic activity of the peptide specific CD4+ T cells is evaluated by quantifying the apoptosis induced on LCL used as antigen presenting cells. Fluorescently labelled autologous LCL, loaded or not with the peptides, were overnight co-cultured at resting state with peptide specific CD4+ T cells, and LCL apoptosis was quantified by flow cytometry through Annexin V staining. Considering the apoptosis percentage of unloaded LCL, used as control, the percentage of specific apoptosis is calculated as follows: […]
# [3] = test system: peptide-specific CD4+ T cell lines of NMO patients; assay: Cytokine secretion in CD4+ T cell culture supernatants (LEGENDplex Human Th Panel); format: cell-based
# Excerpt: as §1
# The ability of the peptides of table 1 to induce cytokines secretion in CD4+ T cells culture supernatants is evaluated by flow cytometry analysis after overnight co-culture at resting state with autologous mDC or LCL without (no peptide) or with the peptides of table 1. Supernatants are analyzed with the LEGENDplex Human Th Panel (13-plex) (BioLegend, 740721) according to the supplier recommendations.
# [4] = test system: peptide-specific CD4+ T cell lines of NMO patients; assay: Flow cytometry of TCR induced surface activation marker CD154 after overnight co-culture with autologous LCL; format: cell-based, human
# Excerpt: as §1
# The evaluation of the ability of the peptides of table 1 to generate peptide specific CD4+ T cells is evaluated by flow cytometry analysis of the TCR induced surface activation marker CD154 expression after overnight co-culture at resting state with autologous
# as §2
# [5] = target: T1, soluble HLA-DRB1*03:01 (DR3) human MHC II protein (Homo sapiens, UniProt P01903+P01911, A100K/A102G/A103R/A169T/F55Y/I96L/K41T/L162R/M171V/P40S/Q125H/Q178H/Q39Y/R42S/S66N/T106N/T262R/W38E/Y61H); assay: Soluble phase competition binding assay to MHCII with biotin-labelled control peptide; details: competition with biotin-labelled high affinity control peptide, 18h, triplicates (FIGS. 2A-2E)
# T1 construct: purchased Benaroya Research Institute, Seattle, US
# Procedure: To test the binding of the immunogenic peptides of table 1 to MHCII molecules, a soluble phase competition assay is performed. The increasing concentrations of the peptides compete with biotin-labelled control peptide (high affinity binder of the corresponding MHCII molecule, Eurogentec, Seraing, Belgium) for binding to the soluble HLA-DRB1*03:01 (also named DR3) human MHC II protein (purchased from the Benaroya Research Institute, Seattle, US). As binding approaches its equilibrium (18h), biotin-labelled peptide/MHC II complexes are captured, separated from unbound reagents, and quantitatively detected by time-resolved fluorescence (Eu^3+ streptavidin, Perkin Elmer, Brussels, Belgium). Since the biotinylated control peptide is responsible for the fluorescence signal (Eu^3+ streptavidin/biotin interaction), the decrease in fluorescence intensity reflects the binding of tested peptides. Data are processed and plotted to ascertain dose-dependent binding properties of the peptides. All the tests are performed in triplicates.
# [6] = Oxidoreductase activity of the immunogenic peptides, fluorescent assay (Tomazzolli et al.); format: biochemical; details: for time at which oxidoreductase activity reached a plateau: FIG. 1A; for oxidoreductase activity: reduction of self-quenched FITC peptides, mean of duplicates, read in RFU (FIGS. 1A-1E)
# Excerpt: The peptides of the invention comprise an MHC class II T-cell epitope or NKT cell epitope of AQP4 with a potential to trigger an immune reaction, and a modified oxidoreductase motif. The reducing activity of the motif sequence in the peptide can be assayed for its ability to reduce a sulfhydryl group such as in the insulin solubility assay wherein the solubility of insulin is altered upon reduction, or with a fluorescence-labelled substrate such as insulin. An example of such assay uses a fluorescent peptide and is described in Tomazzolli et al. (2006) Anal. Biochem. 350, 105-112. Two peptides with a FITC label become self-quenching when they covalently attached to each other via a disulfide bridge. Upon reduction by a peptide in accordance with the present invention, the reduced individual peptides become fluorescent again.
# The oxidoreductase activity of the immunogenic peptides of table 1 was determined using a fluorescent assay described in Tomazzolli et al. (2006) Anal. Biochem. 350, 105-112. Two peptides with a FITC label become self-quenching when they form a covalent disulfide bond. Upon reduction by a peptide in accordance with the present invention, the reduced individual FITC labelled peptides emit fluorescence again. The activity is expressed as the mean of duplicates. The results are expressed in Relative Fluorescent Units (RFU).
# [7] = P20-specific CD4+ T cell lines NMO-001, NMO-003, NMO-006 (FIGS. 8 and 9)
# [8] = culture supernatant of P20-CD4+ cell line from patient NMO-006 (FIG. 5)
# [9] = P20-specific CD4+ T cell line, patient NMO-001, after 14 stimulations (FIG. 6)
# [10] = P12-specific CD4+ T cell line NMO-001 (FIG. 14)
# [11] = P12-specific CD4+ T cell line, patient NMO-001 (FIG. 13)
sequence,measurement,setting,value
"AGGLYEYVFCPDVEFKRRFK [short C-WT T-cell epitope, reference compound]",effector cells expressing the lytic marker Granzyme B,[1]; [7],specific increase of effector cells expressing the lytic marker Granzyme B
same,cross-reactivity (LCL apoptosis),[2]; CD4+ T cells of patient NMO-001 after 16 stimulations with P20 (FIG. 7),lower
same,specific secretion of cytokines (IL-5 and IL-13),[3]; [8],specific secretion of cytokines (IL-5 and IL-13) induced
"AGGLYEYVFSPDVEFKRRFK [short-S-WT epitope, reference compound]",effector cells expressing the lytic marker Granzyme B,[1]; [7],specific increase of effector cells expressing the lytic marker Granzyme B
same,percentage of specific LCL apoptosis,[2]; [9],increase in the percentage of specific LCL apoptosis
same,reactivation of P20-specific CD4+ T cells (CD154+),[4]; P20-specific CD4+ T cells of NMO-001 patient (FIG. 4),could also be reactivated
HCPYCAVTVAMVCTRKISIAKK [P6],binding to HLA-DRB1*03:01,[5],less affinity than P12 and P20
HCPYCEYVFSPDVEFKRRFK [P20],effector cells expressing the lytic marker Granzyme B,[1]; [7],specific increase of effector cells expressing the lytic marker Granzyme B
same,percentage of specific LCL apoptosis,[2]; [9],increase in the percentage of specific LCL apoptosis
same,apoptosis of loaded LCL,"[2]; P20-specific CD4+ T cell line, patient NMO-003, after 14 stimulations (FIG. 6)",Apoptosis of LCL loaded with P20 was also observed
same,LCL apoptosis,[2]; co-culture with CD4+ T cells of patient NMO-001 after 16 stimulations with P20 (FIG. 7),50%
same,frequency of effector cells (CD3+CD4+CD154+),[4]; P20-specific CD4+ T cell lines of NMO patients -001 and -003 after multiple stimulations (FIG. 3),high frequency of effector cells
same,binding to HLA-DRB1*03:01,[5],bind to HLA-DRB1*03:01 with similar affinity
same,specific secretion of cytokines (IL-5 and IL-13),[3]; [8],specific secretion of cytokines (IL-5 and IL-13) induced
same,time at which oxidoreductase activity reached a plateau,[6],5 min
HCPYCRENIMVAFKGVWTQAK [P1],binding to HLA-DRB1*03:01,[5],less affinity than P12 and P20
HCPYCRSQVETDDLILKPGVK [P22],oxidoreductase activity,[6],"displayed oxidoreductase activity, although to a lesser extend"
HCPYCTRKISIAKSVFYIAAKKK [P12],effector cells expressing the lytic marker Granzyme B,[1]; [10],specific increase of effector cells expressing the lytic marker Granzyme B
same,percentage of specific LCL apoptosis,[2]; [11],increase in the percentage of specific LCL apoptosis
same,frequency of effector cells (CD3+CD4+CD154+),[4]; P12-specific CD4+ T cell lines of NMO patients -001 and -003 after multiple stimulations (FIG. 10),high frequency of effector cells
same,binding to HLA-DRB1*03:01,[5],bind to HLA-DRB1*03:01 with similar affinity
same,specific secretion of cytokines (IL-5 and IL-13),"[3]; culture supernatant of P12-specific CD4+ cell lines (FIG. 12, NMO-003)",specific secretion of cytokines (IL-5 and IL-13) induced
same,time at which oxidoreductase activity reached a plateau,[6],5 min
HCPYCTVAMVSTRKISIAK [P3],binding to HLA-DRB1*03:01,[5],less affinity than P12 and P20
HCPYCVETIFASSDSKRTDVK (HCPYCVFTIFASSDSKRTDVK) [P15],binding to HLA-DRB1*03:01,[5],less affinity than P12 and P20
same,oxidoreductase activity,[6],"displayed oxidoreductase activity, although to a lesser extend"
KHCPYCVFTIFASCDSKRTDVK [P18],binding to HLA-DRB1*03:01,[5],less affinity than P12 and P20
"KVAMVCTRKISIAKSVFYIAAKK [short-WT epitope, reference compound]",effector cells expressing the lytic marker Granzyme B,[1]; [10],specific increase of effector cells expressing the lytic marker Granzyme B
same,percentage of specific LCL apoptosis,[2]; [11],increase in the percentage of specific LCL apoptosis
same,reactivation of P12-specific CD4+ T cells (CD154+),[4]; P12-specific CD4+ T cells of NMO-001 patient (FIG. 11),could also be reactivated
